{"source": "patent US20080233159A1", "about": "“Home-use insecticide” (priority 2007, published 2008)", "key": {"house flies": {"test_system": "house flies", "settings": "microdrop method, prallethrin isomers, d/d-trans isomer = 100; cited from earlier work"}, "[1]": {"test_system": "adult male American cockroaches", "assay": "Turntable method, test aerosols", "format": "in vivo", "settings": "0.35 g/300 ml aerosol; for KT50 value: 1 second spray, 5 minutes exposure", "source_text": "(2-a) Turntable Method: A glass cylinder having an inner diameter of 20 cm and height of 43 cm was placed on a wooden stand and a glass pot (outer diameter: 15 cm, height: 15 cm) containing two adult male American cockroaches was attached directly beneath the cylinder by using a glass plate as a shutter. Test aerosol insecticides prepared in accordance with Example 1 were sprayed into the glass cylinder for 1 second. Five seconds later, the glass plate shutter was pulled out and the test cockroaches were exposed to the descending aerosol particles for 5 minutes. The range of times until the occurrence of knockdown and the approximate average times were determined followed by observation of mortality 24 hours later. This test was repeated six times."}, "American cockroaches": {"test_system": "American cockroaches", "assay": "Residual contact method, test aerosols on decorative sheet", "format": "in vivo", "settings": "for Mortality after 72 hours, After 1 day of spray: 0.35 g/300 ml aerosol at 25 mL/m^2, 2 hours contact 1 day after spraying", "description": "(2-b) Residual Contact Method: The test aerosols were sprayed onto a decorative sheet measuring 20 cm on a side at the rate of 25 mL/m^2. After 1 day of spraying, a glass ring measuring 12 cm in diameter was placed on the decorative sheet and five American cockroaches were contacted with the sheet for 2 hours inside the ring at 1, 7, 15 and 21 days after spraying followed by observation of mortality 72 hours later."}, "[2]": {"assay": "Solubility / compatibility with kerosene", "format": "physicochemical"}, "female house flies": {"test_system": "female house flies", "assay": "Comparative efficacy test by the microdrop method, subject compound and its seven other isomers", "format": "in vivo", "settings": "for Insecticidal Efficacy Relative efficacy ratio: subject compound = 100", "description": "2-Methyl-4-oxo-3-(2-propynyl)-2-cyclopenten-1-yl 2,2-dimethyl-3-(2,2-dichlorovinyl)cyclopropanecarboxylate has a total of eight isomers based on two asymmetric carbon atoms of the acid portion and one asymmetric carbon atom of the alcohol portion. Therefore, a comparative efficacy test was conducted on female house flies using the microdrop method for the subject compound and the other seven isomers."}, "[3]": {"test_system": "House flies (female adults)", "assay": "Glass chamber method, test aerosols", "format": "in vivo", "settings": "for Mortality: 10 minutes exposure, kill rate after additional 24 hours; for KT50 value: glass chamber 0.216 m^3, 1 second spray", "description": "Glass chamber method: test aerosol insecticides prepared in accordance with Example 1 were sprayed for 1 second in a glass chamber having a volume of 60×60×60 cm (0.216 m^3). House flies (in groups of about 25 female adults each) were released into the chamber 10 seconds later, and the numbers of test […] that fell to the ground and rolled over during 10 minutes of exposure were recorded over the course of time to determine the KT50 values followed by observation of the kill rate after an additional 24 hours."}}, "data": [{"compound": "2-Methyl-4-oxo-3-(2-propynyl)-2-cyclopenten-1-yl 2,2-dimethyl-3-(2,2-dichlorovinyl)cyclopropanecarboxylate [Compound 2]", "values": [{"measurement": "Relative efficacy ratio", "setting": "house flies", "result": 39}]}, {"compound": "C#CCN1CC(=O)N(COC(=O)[C@@H]2C(C=C(C)C)C2(C)C)C1=O", "note": "(mixture of isomers) [Imiprothrin, imiprothrin, reference compound]", "values": [{"measurement": "Mortality after 24 hours", "setting": "[1]", "result": 83, "unit": "%"}, {"measurement": "KT50 value", "setting": "[1]", "result": 51, "unit": "s"}, {"measurement": "Mortality after 72 hours, After 1 day of spray", "setting": "American cockroaches", "result": 0, "unit": "%"}, {"measurement": "Solubility in / compatibility with kerosene", "setting": "[2]", "result": "extremely poor solubility in kerosene"}]}, {"compound": "C#CCC1=C(C)C(OC(=O)[C@H]2[C@H](C=C(Cl)Cl)C2(C)C)CC1=O", "note": "(relative stereo) [Compound 1, (d)-2-methyl-4-oxo-3-(2-propynyl)-2-cyclopenten-1-yl (d)-trans-2,2-dimethyl-3-(2,2-dichlorovinyl)cyclopropanecarboxylate]", "values": [{"measurement": "Insecticidal Efficacy LD50", "setting": "female house flies", "result": 0.0263, "unit": "μg/insect"}, {"measurement": "Insecticidal Efficacy Relative efficacy ratio", "setting": "female house flies", "result": 100}, {"measurement": "Mortality", "setting": "[3]; 0.15 g/300 ml aerosol", "result": 93.3, "unit": "%"}, {"measurement": "Mortality", "setting": "[3]; 0.45 g/300 ml aerosol", "result": 100, "unit": "%"}, {"measurement": "KT50 value", "setting": "[3]; 0.15 g/300 ml aerosol", "result": 73, "unit": "s"}, {"measurement": "KT50 value", "setting": "[3]; 0.45 g/300 ml aerosol", "result": 36, "unit": "s"}, {"measurement": "Mortality after 24 hours", "setting": "[1]", "result": 100, "unit": "%"}, {"measurement": "KT50 value", "setting": "[1]", "result": 102, "unit": "s"}, {"measurement": "Mortality after 72 hours, After 1 day of spray", "setting": "American cockroaches", "result": 100, "unit": "%"}, {"measurement": "Mortality after 72 hours, After 7 days", "setting": "American cockroaches; 0.35 g/300 ml aerosol at 25 mL/m^2, 2 hours contact 7 days after spraying", "result": 100, "unit": "%"}, {"measurement": "Mortality after 72 hours, After 15 days", "setting": "American cockroaches; 0.35 g/300 ml aerosol at 25 mL/m^2, 2 hours contact 15 days after spraying", "result": 100, "unit": "%"}, {"measurement": "Mortality after 72 hours, After 21 days", "setting": "American cockroaches; 0.35 g/300 ml aerosol at 25 mL/m^2, 2 hours contact 21 days after spraying", "result": 100, "unit": "%"}, {"measurement": "Solubility in / compatibility with kerosene", "setting": "[2]", "result": "satisfactory compatibility with solvents such as kerosene"}, {"measurement": "Relative efficacy ratio", "setting": "house flies", "result": 100}]}, {"compound": "C#CCC1=C(C)C(OC(=O)C2C(C=C(Cl)Cl)C2(C)C)CC1=O", "note": "(stereo not drawn) [Compound 2, 2-Methyl-4-oxo-3-(2-propynyl)-2-cyclopenten-1-yl 2,2-dimethyl-3-(2,2-dichlorovinyl)cyclopropanecarboxylate]", "values": [{"measurement": "Insecticidal Efficacy LD50", "setting": "female house flies", "result": 0.0415, "unit": "μg/insect"}, {"measurement": "Insecticidal Efficacy Relative efficacy ratio", "setting": "female house flies", "result": 63.0}]}, {"compound": "C#CCC1=C(C)C(OC(=O)C2C(C=C(Cl)Cl)C2(C)C)CC1=O", "note": "(stereo not drawn) [Compound 3, 2-Methyl-4-oxo-3-(2-propynyl)-2-cyclopenten-1-yl 2,2-dimethyl-3-(2,2-dichlorovinyl)cyclopropanecarboxylate]", "values": [{"measurement": "Insecticidal Efficacy LD50", "setting": "female house flies", "result": 0.245, "unit": "μg/insect"}, {"measurement": "Insecticidal Efficacy Relative efficacy ratio", "setting": "female house flies", "result": 11.0}, {"measurement": "Relative efficacy ratio", "setting": "house flies", "result": 17}]}, {"compound": "C#CCC1=C(C)C(OC(=O)C2C(C=C(Cl)Cl)C2(C)C)CC1=O", "note": "(stereo not drawn) [Compound 4, 2-Methyl-4-oxo-3-(2-propynyl)-2-cyclopenten-1-yl 2,2-dimethyl-3-(2,2-dichlorovinyl)cyclopropanecarboxylate]", "values": [{"measurement": "Insecticidal Efficacy LD50", "setting": "female house flies", "result": 0.376, "unit": "μg/insect"}, {"measurement": "Insecticidal Efficacy Relative efficacy ratio", "setting": "female house flies", "result": 7.0}, {"measurement": "Relative efficacy ratio", "setting": "house flies", "result": 13}]}, {"compound": "C#CCC1=C(C)C(OC(=O)C2C(C=C(Cl)Cl)C2(C)C)CC1=O", "note": "(stereo not drawn) [Compound 5, 2-Methyl-4-oxo-3-(2-propynyl)-2-cyclopenten-1-yl 2,2-dimethyl-3-(2,2-dichlorovinyl)cyclopropanecarboxylate]", "values": [{"measurement": "Insecticidal Efficacy LD50", "setting": "female house flies", "result": 0.337, "unit": "μg/insect"}, {"measurement": "Insecticidal Efficacy Relative efficacy ratio", "setting": "female house flies", "result": 7.8}, {"measurement": "Relative efficacy ratio", "setting": "house flies", "result": 1.3}]}, {"compound": "C#CCC1=C(C)C(OC(=O)C2C(C=C(Cl)Cl)C2(C)C)CC1=O", "note": "(stereo not drawn) [Compound 6, 2-Methyl-4-oxo-3-(2-propynyl)-2-cyclopenten-1-yl 2,2-dimethyl-3-(2,2-dichlorovinyl)cyclopropanecarboxylate]", "values": [{"measurement": "Insecticidal Efficacy LD50", "setting": "female house flies", "result": 0.526, "unit": "μg/insect"}, {"measurement": "Insecticidal Efficacy Relative efficacy ratio", "setting": "female house flies", "result": 5.0}, {"measurement": "Relative efficacy ratio", "setting": "house flies", "result": 0.4}]}, {"compound": "C#CCC1=C(C)C(OC(=O)C2C(C=C(Cl)Cl)C2(C)C)CC1=O", "note": "(stereo not drawn) [Compound 7, 2-Methyl-4-oxo-3-(2-propynyl)-2-cyclopenten-1-yl 2,2-dimethyl-3-(2,2-dichlorovinyl)cyclopropanecarboxylate]", "values": [{"measurement": "Insecticidal Efficacy LD50", "setting": "female house flies", "result": 3.29, "unit": "μg/insect"}, {"measurement": "Insecticidal Efficacy Relative efficacy ratio", "setting": "female house flies", "result": 0.8}, {"measurement": "Relative efficacy ratio", "setting": "house flies", "result": 0.2}]}, {"compound": "C#CCC1=C(C)C(OC(=O)C2C(C=C(Cl)Cl)C2(C)C)CC1=O", "note": "(stereo not drawn) [Compound 8, 2-Methyl-4-oxo-3-(2-propynyl)-2-cyclopenten-1-yl 2,2-dimethyl-3-(2,2-dichlorovinyl)cyclopropanecarboxylate]", "values": [{"measurement": "Insecticidal Efficacy LD50", "setting": "female house flies", "result": 5.30, "unit": "μg/insect"}, {"measurement": "Insecticidal Efficacy Relative efficacy ratio", "setting": "female house flies", "result": 0.5}, {"measurement": "Relative efficacy ratio", "setting": "house flies", "result": 0.2}]}, {"compound": "d-T80-phthalthrin [reference compound]", "values": [{"measurement": "Mortality", "setting": "[3]; 0.15 g/300 ml aerosol", "result": 20.0, "unit": "%"}, {"measurement": "Mortality", "setting": "[3]; 0.45 g/300 ml aerosol", "result": 39.2, "unit": "%"}, {"measurement": "KT50 value", "setting": "[3]; 0.15 g/300 ml aerosol", "result": 204, "unit": "s"}, {"measurement": "KT50 value", "setting": "[3]; 0.45 g/300 ml aerosol", "result": 73, "unit": "s"}, {"measurement": "Mortality after 24 hours", "setting": "[1]", "result": 33, "unit": "%"}, {"measurement": "KT50 value", "setting": "[1]", "result": ">300", "unit": "s"}]}]}
